What all share (type): cell-based
The target in one assay is T1, caspase-9 GFPspark (Homo sapiens, UniProt P55211).
T1 construct: host or cells: MCF-7, HEK-293
T1 sequence (P55211 1-416): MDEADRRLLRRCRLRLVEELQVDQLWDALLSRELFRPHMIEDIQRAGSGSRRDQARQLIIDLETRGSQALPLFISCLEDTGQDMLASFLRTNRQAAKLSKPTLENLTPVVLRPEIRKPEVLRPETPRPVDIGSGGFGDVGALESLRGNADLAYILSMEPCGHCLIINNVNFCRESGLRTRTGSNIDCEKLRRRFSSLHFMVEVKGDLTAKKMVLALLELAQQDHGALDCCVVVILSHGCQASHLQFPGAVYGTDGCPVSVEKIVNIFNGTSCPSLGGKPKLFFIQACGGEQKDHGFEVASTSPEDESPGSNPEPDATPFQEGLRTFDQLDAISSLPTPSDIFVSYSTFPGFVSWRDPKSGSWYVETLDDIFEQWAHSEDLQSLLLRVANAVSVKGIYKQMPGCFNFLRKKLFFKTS
Nature of the assay: AbRGT FRET imaging / acceptor photobleaching, caspase-9 GFPspark in HEK-293 cells. How it is done:
FIGS. 17A and 17B depict specific detection of caspase-9 GFPspark in HEK-293 cells. Casp-9 GFPspark (1 μg) transfected HEK-293 cells were treated with STS (1 μM) for 4 h and labelled with the probe 1 (1 μM) for 2 h. […] The acceptor photobleaching was performed to confirm the FRET signal as described previously. The bar graph representing the rise in GFP intensity in ROI after rhodamine photobleaching was 75 a.u. as compared to the unbleached background, i.e., 10 a.u. FRET efficiency was calculated to be 35±2%.
(§1) Plasmids and transient transfection: GFPspark tagged plasmids; caspase-3 GFPspark tag (Cat: HG10050-ACG), caspase-7 GFPspark tag (HG10049-ACG), caspase-8 GFPspark (HG10078-ACG), caspase-9 GFPspark (HG11151-ACG) and cathepsin B GFPspark (HG10483-ACG) were procured from Sino Biological. For transfection, cells were seeded in a 6-well plate at a density of 0.4 million cells/well. […] 24 h post-transfection, cells were visualized under the GFP filter for GFPspark expression under fluorescence microscope at 10× magnification.
(§2) Labelling of active caspases in apoptotic cells with FABP: After 24 h of transfection, cells were treated with STS (1 μM) drug or TRAIL (1 μg/ml) for apoptotic induction and incubated for 2, 4, 6 and 8 h at 37° C. in a humidified atmosphere of 5% CO2/95% air. […] Slides were then imaged for GFP, FRET and rhodamine fluorescence signals under confocal microscopy. […]
(§3) Fluorescence imaging studies, FRET procedure: Images were collected on Zeiss LSM710 confocal microscope with 25 mW argon laser using Zen10 software. […] Images were collected in the three channels; GFP channel, argon laser tuned at 488 nm with 2% laser intensity and fluorescence emission was collected in emission range of 490-550 nm; rhodamine channel, argon laser tuned to 561 nm laser with 2% laser intensity and fluorescence emission was collected in range 550-650 nm and FRET channel with excitation laser of GFPSPARK channel and emission range of rhodamine channel. […]

Another assay concerns the target T2, caspase-7 GFPspark (Homo sapiens, UniProt P55210).
T2 construct: host or cells: MCF-7, HEK-293
T2 sequence (P55210 24-198 limits assumed): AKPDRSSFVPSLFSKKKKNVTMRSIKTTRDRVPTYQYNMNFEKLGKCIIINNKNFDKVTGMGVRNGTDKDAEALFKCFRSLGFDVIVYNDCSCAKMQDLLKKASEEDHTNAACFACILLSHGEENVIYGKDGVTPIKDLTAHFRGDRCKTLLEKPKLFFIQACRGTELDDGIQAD
T2 sequence (P55210 207-303 limits assumed): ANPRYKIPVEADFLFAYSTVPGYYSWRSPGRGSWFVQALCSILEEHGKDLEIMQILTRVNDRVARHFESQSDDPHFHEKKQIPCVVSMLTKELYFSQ
Nature of the assay: AbRGT FRET imaging / acceptor photobleaching, caspase-7 GFPspark in HEK-293 cells. How it is done:
FIGS. 14A and 14B depict specific detection of caspase-7 GFPspark in HEK-293 cells. Caspase-7 GFPspark (1 μg) transfected HEK-293 cells were treated with STS (1 μM) for 10 h and labelled with the probe 1 (1 μM) for 2 h. […] The acceptor photobleaching experiment was performed to confirm the FRET signal as described previously. Bar graph representing a rise in GFP intensity in ROI after rhodamine photobleaching was 87 a.u. as compared to the unbleached background, i.e., 13 a.u. FRET efficiency was calculated to be 33±2%.
as §1, §2, §3

Another assay has as its target T3, caspase-3 GFPspark (Homo sapiens, UniProt P42574).
T3 sequence (P42574 29-175 limits assumed): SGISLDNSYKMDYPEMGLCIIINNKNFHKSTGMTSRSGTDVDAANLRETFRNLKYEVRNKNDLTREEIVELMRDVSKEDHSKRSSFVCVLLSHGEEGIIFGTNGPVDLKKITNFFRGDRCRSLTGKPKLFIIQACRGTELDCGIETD
T3 sequence (P42574 176-277 limits assumed): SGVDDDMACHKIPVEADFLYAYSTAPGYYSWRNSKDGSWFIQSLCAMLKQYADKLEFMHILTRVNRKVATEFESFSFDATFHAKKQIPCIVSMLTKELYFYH
Nature of the assay: AbRGT FRET imaging / acceptor photobleaching, caspase-3 GFPspark in HeLa cells. Conditions: STS 1 μM 10 h, probe 1 μM. Set-up: host or cells: HeLa.

Setting [1] is: HEK-293, STS 1 μM 4 h, probe 1 μM 2 h.
Setting [2] is: HEK-293, STS 1 μM 10 h, probe 1 μM 2 h.

Peptide text beside a SMILES is read from it. * marks the point of attachment. Cbz = O=C(OCc1ccccc1)*; CH2F = FC*

On to `COC(=O)C[C@H](NC(=O)[C@H](C)NC(=O)[C@@H](NC(=O)OCc1ccccc1)C(C)C)C(=O)CF` [Z-VAD-FMK] (Cbz-Val-Ala-Asp(OMe)-CH2F), for which the “effect of inhibitor on FRET signal” value on caspase-9 GFPspark (HEK-293, inhibitor 50 μM pre-treatment, STS 4 h) is “abolished”; at caspase-7 GFPspark (HEK-293, inhibitor 50 μM pre-treatment, STS 10 h), “abolished”.
On to “Rhodamine-VAD-fluoromethyl ketone [probe 1]”, for which the results for the “calculated FRET efficiency” value on caspase-9 GFPspark (setting [1]), at caspase-7 GFPspark (setting [2]) and on caspase-3 GFPspark were 35±2%, 33±2% and 32±2%, respectively. In addition, the entries for the “rise in GFP intensity in ROI after rhodamine photobleaching” value at caspase-9 GFPspark (setting [1]) and on caspase-7 GFPspark (setting [2]) were 75 a.u and 87 a.u, respectively. In addition, the “rise in GFP intensity in the ROI” value on caspase-3 GFPspark (n=15 cells) was 52±5 a.u.

These data come from patent US11834698B2, “Process for determining enzyme activity in a cell by activity-based reporter gene technology (ABRGT)” (INDIAN INSTITUTE OF SCIENCE EDUCATION AND RESEARCH, priority 2018, dated 2023).
